Target: T1, Recombinant human renin (Homo sapiens, UniProt P00797)
T1 construct: isolate the active form (residues 67-406); made in house; host or cells: FreeStyle 293-F cells (transient expression of pcDNA3.1(+)/hREN)
T1 sequence (P00797 67-406): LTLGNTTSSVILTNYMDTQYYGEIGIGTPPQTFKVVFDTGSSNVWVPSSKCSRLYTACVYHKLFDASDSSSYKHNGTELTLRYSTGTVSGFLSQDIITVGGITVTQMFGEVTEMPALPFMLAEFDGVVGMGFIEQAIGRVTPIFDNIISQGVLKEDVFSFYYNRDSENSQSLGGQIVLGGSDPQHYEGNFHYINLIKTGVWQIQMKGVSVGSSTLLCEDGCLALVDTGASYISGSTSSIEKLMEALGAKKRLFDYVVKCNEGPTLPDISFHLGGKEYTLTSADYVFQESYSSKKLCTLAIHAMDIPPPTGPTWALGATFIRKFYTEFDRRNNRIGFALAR
Experiment: In vitro enzymatic activity assay of renin inhibitors (fluorogenic peptide substrate)
Format: biochemical
Conditions: read-out: IC50 of Exemplified Compounds Against Renin
In short: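 Recombinant human renin (3 nM final) pre-incubated 10 min at 37 °C with compounds in pH 7.4 Hepes/EDTA/DTT/0.1 mg/mL BSA/Brij35 buffer (optionally plus 2% BSA), 5% DMSO final; fluorogenic QXL520/HiLyteFluo488 peptide substrate added.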

Row | SMILES | IC50
1 | COCCCn1c([C@@H]2CCCN(C(=O)C[C@H](N)Cc3ccc(-c4ccc(N)cc4)cc3)C2)nc2ccccc21 [Compound 170, (R)-3-Amino-4-(4′-aminobiphenyl-4-yl)-1-((R)-3-(1-(3-methoxypropyl)-1H-benzo[d]imidazol-2-yl)piperidin-1-yl)butan-1-one] | < 100 nM
2 | COCCCn1c([C@@H]2CCCN(C(=O)C[C@H](N)Cc3ccc4ccccc4c3)C2)nc2cc(Cl)c(Cl)cc21 [Compound 81, (R)-3-amino-1((R)-3-(5,6-dichloro-1-(3-methoxypropyl)-1H-benzo[d]imidazol-2-yl)piperidin-1-yl)-4-(naphthalen-2-yl)butan-1-one] | 100 to 1000 nM
3 | O=C([C@H]1CCCN1)N1CCCC(c2nc3ccccc3[nH]2)C1 (stereo partly drawn) [Compound 54, (3-(1H-benzo[d]imidazol-2-yl)piperidin-1-yl)((R)-pyrrolidin-2-yl)methanone] | > 1000 nM
4 | O=C(C1CCCNC1)N1CCCC(c2nc3ccccc3[nH]2)C1 (stereo not drawn) [Compound 52, (3-(1H-benzo[d]imidazol-2-yl)piperidin-1-yl)(piperidin-3-yl)methanone] | > 1000 nM
5 | N[C@@H](CC(=O)N1CCCC(c2nc3ccccc3[nH]2)C1)Cc1ccc(Br)cc1 (stereo partly drawn) [Compound 34, (3R)-1-(3-(1H-benzo[d]imidazol-2-yl)piperidin-1-yl)-3-amino-4-(4-bromophenyl)butan-1-one] | > 1000 nM
6 | COCCCn1c([C@@H]2CCCN(C(=O)C[C@H](N)Cc3ccc(-c4ccc(OC(C)C)nc4)cc3)C2)nc2ccccc21 [Compound 142, (R)-3-amino-4-(4-(6-isopropoxypyridin-3-yl)phenyl)-1-((R)-3-(1-(3-methoxypropyl)-1H-benzo[d]imidazol-2-yl)piperidin-1-yl)butan-1-one] | < 100 nM
7 | COCCCn1c([C@@H]2CCCN(C(=O)C[C@H](N)c3cccc(Cl)c3)C2)nc2ccccc21 [Compound 83, (S)-3-amino-3-(3-chlorophenyl)-1((R)-3-(1-(3-methoxypropyl)-1H-benzo[d]imidazol-2-yl)piperidin-1-yl)propan-1-one] | > 1000 nM

Next, values leading:

Row | IC50 | SMILES
8 | 100 to 1000 nM | CC(=O)NCCn1c([C@@H]2CCCN(C(=O)C[C@H](N)Cc3ccc(-c4ccc(O)nc4)cc3)C2)nc2c(C)cccc21 [Compound 473, N-(2-(2-((R)-1-((R)-3-amino-4-(4-(6-hydroxypyridin-3-yl)phenyl)butanoyl)piperidin-3-yl)-4-methyl-1H-benzo[d]imidazol-1-yl)ethyl)acetamide]
9 | > 1000 nM | COCCCn1c([C@@H]2CCCN(C(=O)C[C@H](N)CNC(=O)c3ccccc3OC)C2)nc2ccccc21 [Compound 327, N-((S)-2-amino-4-((R)-3-(1-(3-methoxypropyl)-1H-benzo[d]imidazol-2-yl)piperidin-1-yl)-4-oxobutyl)-2-methoxybenzamide]
10 | < 100 nM | COCCCn1c([C@@H]2CCCN(C(=O)C[C@H](N)Cc3ccc(-c4cnc(N)nc4)cc3)C2)nc2c(F)cccc21 [Compound 456, (R)-3-amino-4-(4-(2-aminopyrimidin-5-yl)phenyl)-1-((R)-3-(4-fluoro-1-(3-methoxypropyl)-1H-benzo[d]imidazol-2-yl)piperidin-1-yl)butan-1-one]
11 | > 1000 nM | COCCCn1c([C@@H]2CCCN(C(=O)[C@@H]3CN(C(=O)c4ccco4)C[C@H]3N)C2)nc2ccccc21 [Compound 420, ((3R,4S)-4-amino-1-(furan-2-carbonyl)pyrrolidin-3-yl)((R)-3-(1-(3-methoxypropyl)-1H-benzo[d]imidazol-2-yl)piperidin-1-yl)methanone]
12 | 100 to 1000 nM | CC(=O)NCCn1c([C@@H]2CCCN(C(=O)C[C@H](N)Cc3ccc(-c4ccc5c(c4)OC(F)(F)O5)cc3)C2)nc2c(C)cccc21 [Compound 474, N-(2-(2-((R)-1-((R)-3-amino-4-(4-(2,2-difluorobenzo[d][1,3]dioxol-5-yl)phenyl)butanoyl)piperidin-3-yl)-4-methyl-1H-benzo[d]imidazol-1-yl)ethyl)acetamide]
